The values below come from US9073916B2, “Prodrug forms of kinase inhibitors and their use in therapy” (AUCKLAND UNISERVICES LIMITED, priority 2009, dated 2015).

A word on the IC50: it is the concentration needed to halve the response being measured.

Data set [1] is described as follows: Pulse radiolysis (E(1) and fragmentation rate). It is filed as physicochemical. As to the method:
Pulse radiolysis was used to monitor the 1-electron reduction and stability of the compounds in real time. A linear accelerator delivering short pulses of high energy electrons (2-3 Gy in 200 ns of 4 MeV) equipped with a fast spectophotometric detection system was used. (Anderson et al, J. Phys. Chem. A, 101, 9704-9709, 1997). […] The rate of fragmentation was determined by analysing kinetic transients at wavelengths corresponding to the formation of the benzyl-type radical of the trigger moiety. (Bays et al, J. Am. Chem. Soc., 105, 320-324, 1983; Anderson et al, J. Phys. Chem. A, 101, 9704-9709, 1997).
The pulse radiolysis method, for example, measures the equilibrium constant between the radical anions of the prodrugs, formed upon their 1-electron reduction, and reference standards such as viologen and quinone compounds, from which data the E(1) values of the compounds can be calculated. (Meisel and Czapski. J. Phys. Chem., 1975, 79, 1503-1509.) The E(1) values of prodrugs 17-22, 140-145 were measured by the pulse radiolysis method and determined to range between −0.493V and −0.388V (Table 4).
The rate constants for fragmentation, kfrag, of the 1-electron reduced prodrugs can be measured using pulse radiolysis to observe the time-resolved formation of the absorption spectrum of the benzyl-type radical produced upon fragmentation of the radical anion. (Anderson et al, J. Phys. Chem. A, 1997, 101, 9704-9709.) The kfrag values of prodrugs 19, 20, 140, 141 and 143-145 were measured by pulse radiolysis and are presented in Table 4.
Pulse radiolysis was used to monitor the one-electron reduction and stability of prodrug 42 in real time. A linear accelerator delivering short pulses of high energy electrons (2-3 Gy in 200 ns of 4 MeV) equipped with a fast spectophotometric detection system was used. […] The rate of fragmentation was determined by analysing kinetic transients at wavelengths corresponding to the formation of the benzyl-type radical of the trigger moiety. (Bays et al, J. Am. Chem. Soc., 105, 320-324, 1983; Anderson et al, J. Phys. Chem. A, 101, 9704-9709, 1997.)

Data set [2] in a line: Steady state radiolytic reduction by the CO2.− radical with HPLC-MS. It is filed as physicochemical.
The subject of the next data set is HT29 cells. As to the kind of experiment: Cellular growth inhibition (sulforhodamine B). It is filed as cell-based, Human. Particulars: Table 7.
A further data set relates to H1975 cells. As to the kind of experiment: Cellular growth inhibition (sulforhodamine B). It is filed as cell-based, Human.
The subject of the next data set is A431 cells. As to the kind of experiment: Cellular growth inhibition (sulforhodamine B). To be noted: for A431 HCR (Hypoxic Cytotoxicity Ratio): Table 3.
Another data set deals with SW620 cells. As to the kind of experiment: Cellular growth inhibition (sulforhodamine B). It is filed as cell-based, Human. Particulars: Table 3; for IC50: Homo sapiens, SW-620.
Another data set has as its system SKBR3 cells. In words: Cellular growth inhibition (sulforhodamine B). Format: cell-based, Human. To be noted: Table 3; for IC50: Homo sapiens, SK-BR-3.
The next data set concerns the target erbB1 (Homo sapiens, UniProt P00533). As to the kind of experiment: Inhibition of erbB1 autophosphorylation in EGF-stimulated intact A431 cells (Western blot). A general note: Immunoblotting shows a protein as a band on a membrane.
The test system of a further data set is SKOV3 cells. In words: Cellular growth inhibition (sulforhodamine B). It is filed as cell-based, Human. Particulars: Table 9; for IC50: Homo sapiens, SK-OV-3.
Where [3] appears, read: 24 hour exposure entirely oxic, read-out: Cellular Growth Inhibition IC50 SW620 Oxic.
The mark [4] stands for this setting: first 4 hours anoxic, read-out: Cellular Growth Inhibition IC50 SW620 Anoxic.
Where [5] appears, read: Homo sapiens, A-431, 24 h, read-out: Cellular Growth Inhibition IC50 A431 Oxic.
Setting [6] is: Homo sapiens, A-431, read-out: Cellular Growth Inhibition IC50 A431 Anoxic.
Where [7] appears, read: 24 hour exposure entirely oxic, read-out: Cellular Growth Inhibition IC50 SKBR3 Oxic.
Setting [8] is: first 4 hours anoxic, read-out: Cellular Growth Inhibition IC50 SKBR3 Anoxic.

Structures are written as SMILES. Where two headings read alike, the source gives them in different places. Where only a bound is given, the exact number is not on record here.

Chain of erbB1 (P00533 25-1210): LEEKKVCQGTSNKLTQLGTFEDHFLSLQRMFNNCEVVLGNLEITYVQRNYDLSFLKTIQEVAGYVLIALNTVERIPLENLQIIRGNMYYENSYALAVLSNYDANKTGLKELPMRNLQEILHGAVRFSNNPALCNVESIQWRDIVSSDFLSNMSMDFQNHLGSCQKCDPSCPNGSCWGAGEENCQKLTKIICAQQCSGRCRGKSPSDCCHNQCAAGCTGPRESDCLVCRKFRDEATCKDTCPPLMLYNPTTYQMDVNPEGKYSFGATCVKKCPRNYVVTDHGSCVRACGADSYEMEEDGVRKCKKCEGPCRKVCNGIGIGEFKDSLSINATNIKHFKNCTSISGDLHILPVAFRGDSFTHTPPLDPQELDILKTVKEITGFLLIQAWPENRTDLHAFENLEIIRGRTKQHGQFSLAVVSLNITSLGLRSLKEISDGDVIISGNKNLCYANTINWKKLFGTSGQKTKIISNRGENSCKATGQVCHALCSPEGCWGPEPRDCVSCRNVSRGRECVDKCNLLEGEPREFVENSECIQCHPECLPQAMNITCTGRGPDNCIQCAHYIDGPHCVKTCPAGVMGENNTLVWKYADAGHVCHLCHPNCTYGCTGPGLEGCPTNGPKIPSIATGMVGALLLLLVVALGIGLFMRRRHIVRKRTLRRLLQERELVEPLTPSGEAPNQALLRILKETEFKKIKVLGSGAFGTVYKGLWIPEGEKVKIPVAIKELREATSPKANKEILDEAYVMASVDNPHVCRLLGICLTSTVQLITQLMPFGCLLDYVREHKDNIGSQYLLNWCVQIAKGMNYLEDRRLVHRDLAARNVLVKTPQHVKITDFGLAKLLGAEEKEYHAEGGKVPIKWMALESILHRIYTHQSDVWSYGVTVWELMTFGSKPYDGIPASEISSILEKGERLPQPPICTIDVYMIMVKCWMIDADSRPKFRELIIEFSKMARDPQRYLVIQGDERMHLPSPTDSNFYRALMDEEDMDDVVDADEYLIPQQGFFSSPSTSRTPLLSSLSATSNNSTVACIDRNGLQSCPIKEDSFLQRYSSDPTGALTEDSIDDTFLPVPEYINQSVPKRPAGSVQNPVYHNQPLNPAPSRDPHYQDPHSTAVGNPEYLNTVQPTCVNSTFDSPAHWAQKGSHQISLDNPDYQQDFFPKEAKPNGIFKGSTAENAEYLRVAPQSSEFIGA
Protocol for H1975 cells: (§1) Human A431, BT474, SKBR3, SKOV3, SW620, H1975 and HT29 carcinoma cells in log phase exponential growth in alpha minimal essential media (αMEM) containing 5% fetal bovine serum (FBS), were harvested by trypsinisation (1× trypsin/EDTA, Gibco Brl), counted, and seeded into 96 well plates (Nunc) at cell densities ranging from 800-1500 cells/well. Half of the cell samples were seeded into plates that were pre-equilibrated and held in an anoxic environment (90% N2, 5% H2, 5% CO2, 37° Q Anaerobic chamber, Coy Laboratory Products). […] At the end of this period the anoxic plates were recovered from the anaerobic camber and held under normoxia in a standard CO2 incubator (37° C.) for 20 hours. All plates were washed free of compound and cells were allowed to proliferate for a further 4 days in αMEM containing 5% FBS+antibiotics. Cells were fixed in trichloroacteic acid (30 min), washed and stained with sulforhodamine B (SRB, 60 min) prior to washing in acidified water. SRB was solubilised and absorption read at 450 nm to calculate cell densities. Inhibition of proliferation was calculated relative to untreated control wells.
(§2) Human A431, H1975 and SKOV3 carcinoma cells in log phase exponential growth in alpha minimal essential media (αMEM) containing 5% fetal bovine serum (FBS), were harvested by trypsinisation (1× trypsin/EDTA, Gibco Brl), counted, and seeded into 96 well plates (Nunc) at cell densities ranging from 800-1500 cells/well. Half of the cell samples were seeded into plates that were pre-equilibrated and held in an anoxic environment (90% N2, 5% H2, 5% CO2, 37° C.; Anaerobic chamber, Coy Laboratory Products). […] At the end of this period the anoxic plates were recovered from the anaerobic camber and held under normoxia in a standard CO2 incubator (37° C.) for 20 hours. All plates were washed free of compound and cells were allowed to proliferate for a further 4 days in αMEM containing 5% FBS+antibiotics. Cells were fixed in trichloroacteic acid (30 min), washed and stained with sulforhodamine B (SRB, 60 min) prior to washing in acidified water. SRB was solubilised and absorption read at 450 nm to calculate cell densities. Inhibition of proliferation was calculated relative to untreated control wells.
They were then washed free of drug and incubated for a further 4 days, before being stained for cell survival with sulforhodamine B.
Protocol for HT29 cells: as §1
Protocol for SKBR3 cells: as §1
Protocol for SKOV3 cells: as §2

Take `CC[N+](CC)(CCNC(=O)c1c(C)[nH]c(/C=C2\C(=O)Nc3ccc(F)cc32)c1C)Cc1c([N+](=O)[O-])nc(C)n1C.[Br-]` [Compound 145, N-[(1,2-dimethyl-4-nitro-1H-imidazol-5-yl)methyl]-N,N-diethyl-2-[({5-[(Z)-(5-fluoro-2-oxo-1,2-dihydro-3H-indol-3-ylidene)methyl]2,4-dimethyl-1H-pyrrol-3-yl}carbonyl)amino]ethanammonium bromide]: the “kfrag. (fragmentation rate constant upon 1-electron reduction)” value in data set [1] (benzyl-type radical formation) turned out to be 1050 ± 40 s⁻¹. In addition, in data set [1] (determined against methylviologen), the “E (1)/V (one-electron reduction potential)” value is −0.456 V. Further, the “Detection of MNA (methyl nitroaromatic)” value in [2] (HPLC-MS) was “Yes”. Besides, the “% Loss of prodrug” value in [2] (HPLC-MS at 0.95 reducing equivalents) is listed as 87%.
As for `Cn1cnc([N+](=O)[O-])c1C[N+](C)(C)C/C=C/C(=O)Nc1cc2c(Nc3ccc(F)c(Cl)c3)ncnc2cc1O[C@H]1CCOC1.O=C([O-])C(F)(F)F` [Compound 82, (2E)-4-({4-(3-chloro-4-fluoroanilino)-7-[(3S)-tetrahydro-3-furanyloxy]-6-quinazolinyl}amino)-N,N-dimethyl-N-[(1-methyl-4-nitro-1H-imidazol-5-yl)methyl]-4-oxo-2-buten-1-ammonium trifluoroacetate], the IC50 was above 100000 nM in the data set with HT29 cells (24 hour exposure oxic, read-out: Cellular Growth Inhibition IC50 HT29 Oxic); above 30000 nM in the data set with HT29 cells (initial 4 hours anoxic, read-out: Cellular Growth Inhibition IC50 HT29 Anoxic); 64500 nM in the data set on H1975 cells (Table 7, 24 hour exposure oxic, read-out: Cellular Growth Inhibition IC50 H1975 Oxic); 2300 nM in the data set on H1975 cells (Table 7, initial 4 hours anoxic, read-out: Cellular Growth Inhibition IC50 H1975 Anoxic); 59 nM in the data set on A431 cells (read-out: Cellular Growth Inhibition IC50 A431 Anoxic, Table 7, initial 4 hours anoxic); 3600 nM with A431 cells (read-out: Cellular Growth Inhibition IC50 A431 Oxic, Table 7, 24 hour exposure oxic). The “H1975 HCR” value in the data set on H1975 cells (Table 7) was 28 fold. Moreover, the “A431 HCR” value in the data set on A431 cells (Table 7) amounted to 62 fold.
On to `O=C(/C=C/CN1CCOCC1)Nc1ccc2ncnc(Nc3cccc(Br)c3)c2c1` [Compound 13, (E)-N-(4-(3-bromophenylamino)quinazolin-6-yl)-4-morpholinobut-2-enamide, reference compound], for which the concentration for half-maximal inhibition (IC50) in the data set on SW620 cells (setting [3]) was found to be 27400 nM; in the data set with SW620 cells (setting [4]) it was 29000 nM; in the data set on A431 cells (setting [5]) it was 430 nM; in the data set on A431 cells (setting [6]), 784 nM; with SKBR3 cells (setting [7]), 1040 nM; in the data set with SKBR3 cells (setting [8]) it was 664 nM. This compound also returned an IC50 on erbB1 of 16 nM. Also, the “SW620 HCR” value in the data set on SW620 cells amounted to 1.5 fold. Further, in the data set with A431 cells, the “A431 HCR (Hypoxic Cytotoxicity Ratio)” value is reported as 0.5 fold. The “SKBR3 HCR” value in the data set on SKBR3 cells was found to be 1.6 fold.
For the compound `CN(C)C/C=C/C(=O)Nc1cc2c(Nc3ccc(F)c(C(F)(F)F)c3)ncnc2cn1` [Compound 170], the IC50 in the data set on SKOV3 cells (24 hour exposure oxic, read-out: Cellular Growth Inhibition IC50 SKOV3 Oxic) worked out at 990 nM; in the data set on SKOV3 cells (first 4 hours anoxic, read-out: Cellular Growth Inhibition IC50 SKOV3 Anoxic) it was 1800 nM; with H1975 cells (Homo sapiens, NCI-H1975, Table 9, 24 hour exposure oxic, read-out: Cellular Growth Inhibition IC50 H1975 Oxic), 1700 nM; with H1975 cells (Homo sapiens, NCI-H1975, Table 9, first 4 hours anoxic, read-out: Cellular Growth Inhibition IC50 H1975 Anoxic) it was 1380 nM; in the data set with A431 cells (Homo sapiens, A-431, 4 h, read-out: Cellular Growth Inhibition IC50 A431 Anoxic), 250 nM; in the data set with A431 cells (setting [5]) it was 240 nM. Also, the IC50 against erbB1 amounted to 8 nM. In addition, the “SKOV3 HCR” value in the data set with SKOV3 cells is listed as 0.7 fold. For the same compound, the “H1975 HCR” value with H1975 cells (Table 9) is 1.2 fold. The “A431 HCR” value in the data set on A431 cells (Table 9) amounted to 1.5 fold.
In the case of `O=C(/C=C/CN1CCCCC1)Nc1ccc2ncnc(Nc3cccc(Br)c3)c2c1` [Compound 12, (E)-N-(4-(3-bromophenylamino)quinazolin-6-yl)-4-(piperidin-1-yl)but-2-enamide, reference compound], the IC50 amounted to 3810 nM in the data set with SW620 cells (setting [3]); 4010 nM with SW620 cells (setting [4]); 10 nM in the data set with A431 cells (setting [5]); 23 nM with A431 cells (setting [6]); 44 nM with SKBR3 cells (setting [7]); 28 nM in the data set with SKBR3 cells (setting [8]). Also, the midpoint of inhibition on erbB1, the IC50, lay at 45 nM. In the data set with SW620 cells, the “SW620 HCR” value is on record as 1.0 fold. The “A431 HCR (Hypoxic Cytotoxicity Ratio)” value with A431 cells was 0.4 fold. In addition, the “SKBR3 HCR” value in the data set on SKBR3 cells stood at 1.6 fold.
